Assay results published in PubChem BioAssay AID2060627 (Molecular Pharmacology Branch, DTP, NCI, 2025).

Tested on: 156681-154-R-J1-PDC complex spheroid viability
Assay: Anticancer human tumor 156681-154-R-J1-PDC patient-derived melanoma cell line growth inhibition [CLK]
Conditions: for IC50: curve of first compound; for viability, T/C: stronger effect = lower value
Procedure, shortened: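 Multi-cell-type spheroids combined patient-derived tumor cells with HUVEC endothelial cells and human mesenchymal stem cells. Paired agents were dosed in half-log steps down from about clinical Cmax, or from 10 microM where Cmax was unknown.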

[1] = second compound 0.0316 µM, first compound 0.0316 µM
[2] = second compound 0.0316 µM, first compound 0.1 µM
[3] = second compound 0.0316 µM, first compound 0.316 µM
[4] = second compound 0.0316 µM, first compound 1 µM
[5] = second compound 0.0316 µM, first compound 3.16 µM
[6] = second compound 0.0316 µM, first compound 10 µM
[7] = second compound 0.1 µM, first compound 0.0316 µM
[8] = second compound 0.1 µM, first compound 0.1 µM
[9] = second compound 0.1 µM, first compound 0.316 µM
[10] = second compound 0.1 µM, first compound 1 µM
[11] = second compound 0.1 µM, first compound 3.16 µM
[12] = second compound 0.1 µM, first compound 10 µM
[13] = second compound 0.316 µM, first compound 0.0316 µM
[14] = second compound 0.316 µM, first compound 0.1 µM
[15] = second compound 0.316 µM, first compound 0.316 µM
[16] = second compound 0.316 µM, first compound 1 µM
[17] = second compound 0.316 µM, first compound 3.16 µM
[18] = second compound 0.316 µM, first compound 10 µM
[19] = second compound 1 µM, first compound 0.0316 µM
[20] = second compound 1 µM, first compound 0.1 µM
[21] = second compound 1 µM, first compound 0.316 µM
[22] = second compound 1 µM, first compound 1 µM
[23] = second compound 1 µM, first compound 3.16 µM
[24] = second compound 1 µM, first compound 10 µM
[25] = second compound 3.16 µM, first compound 0.0316 µM
[26] = second compound 3.16 µM, first compound 0.1 µM
[27] = second compound 3.16 µM, first compound 0.316 µM
[28] = second compound 3.16 µM, first compound 1 µM
[29] = second compound 3.16 µM, first compound 3.16 µM
[30] = second compound 3.16 µM, first compound 10 µM
[31] = second compound 10 µM, first compound 0.0316 µM
[32] = second compound 10 µM, first compound 0.1 µM
[33] = second compound 10 µM, first compound 0.316 µM
[34] = second compound 10 µM, first compound 1 µM
[35] = second compound 10 µM, first compound 3.16 µM
[36] = second compound 10 µM, first compound 10 µM
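Also: spheroids exposed to the agents for seven days.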
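For viability, T/C in this document: 100% = DMSO vehicle control viability.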

## C=CC(=O)N1CCN(c2nc(=O)n(-c3c(C)ccnc3C(C)C)c3nc(-c4c(O)cccc4F)c(F)cc23)C(C)C1 (centres undefined) + CNC(=O)c1ccc(Nc2nc(OC3CCCC3)c3c(-c4ccc5nc(C)oc5c4)c[nH]c3n2)c(OC)c1
Second compound 0.0316 µM
  IC50: > 10000 nM
Second compound 0.1 µM
  IC50: > 10000 nM
Second compound 0.316 µM
  IC50: 5090 nM
Second compound 1 µM
  IC50: < 31.6 nM
Second compound 3.16 µM
  IC50: < 31.6 nM
Second compound 10 µM
  IC50: < 31.6 nM
[1]
  viability, T/C: 83.4%
[2]
  viability, T/C: 105%
[3]
  viability, T/C: 91.4%
[4]
  viability, T/C: 106%
[5]
  viability, T/C: 129%
[6]
  viability, T/C: 82.7%
[7]
  viability, T/C: 47.1%
[8]
  viability, T/C: 67.9%
[9]
  viability, T/C: 71.1%
[10]
  viability, T/C: 58.5%
[11]
  viability, T/C: 70.6%
[12]
  viability, T/C: 36%
[13]
  viability, T/C: 61.1%
[14]
  viability, T/C: 71.6%
[15]
  viability, T/C: 72.3%
[16]
  viability, T/C: 71.2%
[17]
  viability, T/C: 65.6%
[18]
  viability, T/C: 27.2%
[19]
  viability, T/C: 51.9%
[20]
  viability, T/C: 51%
[21]
  viability, T/C: 36.9%
[22]
  viability, T/C: 52.3%
[23]
  viability, T/C: 49%
[24]
  viability, T/C: 14.8%
[25]
  viability, T/C: 35%
[26]
  viability, T/C: 40.4%
[27]
  viability, T/C: 33.4%
[28]
  viability, T/C: 44.2%
[29]
  viability, T/C: 40.1%
[30]
  viability, T/C: 23.4%
[31]
  viability, T/C: 41.6%
[32]
  viability, T/C: 30.6%
[33]
  viability, T/C: 37.4%
[34]
  viability, T/C: 36.3%
[35]
  viability, T/C: 30.9%
[36]
  viability, T/C: 12.4%

## CC(Nc1ccc2c(c1)OCCn1cc(N3C(=O)OCC3C(F)F)nc1-2)C(N)=O (centres undefined) + CN1CCN(c2cc(C(=O)Nc3cc4cc(-c5cnn(C)c5)ccc4cn3)ccn2)CC1
Second compound 0.0316 µM
  IC50: 302 nM
Second compound 0.1 µM
  IC50: 241 nM
Second compound 0.316 µM
  IC50: < 31.6 nM
Second compound 1 µM
  IC50: < 31.6 nM
Second compound 3.16 µM
  IC50: < 31.6 nM
Second compound 10 µM
  IC50: < 31.6 nM
[1]
  viability, T/C: 85.4%
[2]
  viability, T/C: 67%
[3]
  viability, T/C: 49.4%
[4]
  viability, T/C: 34%
[5]
  viability, T/C: 30%
[6]
  viability, T/C: 20%
[7]
  viability, T/C: 73.4%
[8]
  viability, T/C: 65.6%
[9]
  viability, T/C: 43.5%
[10]
  viability, T/C: 29.9%
[11]
  viability, T/C: 20%
[12]
  viability, T/C: 13.7%
[13]
  viability, T/C: 21.1%
[14]
  viability, T/C: 15.7%
[15]
  viability, T/C: 15%
[16]
  viability, T/C: 6.71%
[17]
  viability, T/C: 4.44%
[18]
  viability, T/C: 4.8%
[19]
  viability, T/C: 0.14%
[20]
  viability, T/C: 0.42%
[21]
  viability, T/C: 0.1%
[22]
  viability, T/C: 0.05%
[23]
  viability, T/C: 0.4%
[24]
  viability, T/C: 0.2%
[25]
  viability, T/C: 0.05%
[26]
  viability, T/C: 1.73%
[27]
  viability, T/C: 2.06%
[28]
  viability, T/C: 0.08%
[29]
  viability, T/C: 1.56%
[30]
  viability, T/C: 1.84%
[31]
  viability, T/C: 0.11%
[32]
  viability, T/C: 0.1%
[33]
  viability, T/C: 1.26%
[34]
  viability, T/C: 2.64%
[35]
  viability, T/C: 2.45%
[36]
  viability, T/C: 1.35%
